{
  "source": "patent US20110059869A1",
  "about": "“Method for Increasing Enzymatic Reactivity” (RIKEN, priority 2008, published 2011)",
  "key": {"[1]": {"tested_on": "E. coli DNA ligase, E. coli DNA polymerase I, E. coli RNaseH", "assay": "Double-stranded cDNA synthesis (Gubler-Hoffman method) on cDNA/RNA hybrid adsorbed to streptavidin beads", "assay_type": "biochemical", "conditions": "0.6 M trehalose, 3 hours at 16° C.", "protocol": "RNA was reverse transcribed with Unique oligo-dT having various restriction enzyme sites. The cDNA/RNA hybrids obtained were used while still adsorbed to the beads to conduct a double-strand synthesis reaction by the Gubler-Hoffman method as set forth below.\nA 15 ug quantity of 5′ end biotin-labeled primer (Seq. ID No. 3) for reverse transcription was employed for 12 ug of total RNA (mouse embryo, 17.5, female). Reverse transcription reaction solution (1× GC buffer (Takara), 0.3 mM dNTP mix, saturated sorbitol/trehalose solution 30 uL, M-MLV 3,000 units) was added α[32P]dGTP was added, and the mixture was reacted for 30 minutes at 42° C., 10 minutes at 50° C., and 10 minutes at 56° C. Following reaction with proteinase K, the mixture was precipitated from CTAB/urea and redissolved in 7 M Gu-HCl. EtOH precipitation was then conducted. […]\nStreptavidin beads on which was adsorbed cDNA/RNA hybrid were washed once with double-stranded synthesis-use reaction buffer ([…], Invitrogen). […] The mixture was washed three times with 1× binding buffer and measured with a liquid scintillation counter. The synthesis rate of double-stranded cDNA and the yield were calculated (Scheme 1)."}, "[2]": {"tested_on": "restriction enzyme PstI", "assay": "PstI cleavage of DNA fragments I, II, III in a uniform liquid phase system", "assay_type": "biochemical", "conditions": "0.6 M trehalose present or not, three hours at 37° C.", "protocol": "In the same manner as in 7 above, the three biotin-labeled DNA fractions I, II, and III (Seq. ID Nos. 4 to 6) were each cleaved at the restriction enzyme PstI site and the DNA fragments of various sizes that were released were detected. Two types of reaction solution (1× PstI buffer, 1× BSA, restriction enzyme 40 units) were prepared: a trehalose (+) system with a final D(+)-trehalose concentration of 0.6 M, and a trehalose (−) system to which no trehalose was added. Each of the reaction solutions was admixed and reacted for three hours at 37° C. Cleavage was conducted with restriction enzyme. The DNA fragments of various sizes that were released were reacted with proteinase K, treated with phenol chloroform, and precipitated from ethanol. The precipitate of DNA fragments obtained was dissolved in 1× TE (pH 7.5) and analyzed with Bioanalyzer DNA 1000 assay (Agilent Technologies) (FIGS. 15 and 16)."}, "[3]": {"tested_on": "restriction enzyme PstI", "assay": "PstI cleavage reaction on a horizontal plate surface (DNA fragment III)", "assay_type": "biochemical", "conditions": "horizontal plates, 0.6 M trehalose vs none", "protocol": "Biotin-labeled DNA fragment III (Seq. ID No. 6, Scheme 4) was cleaved at the restriction enzyme PstI site on a horizontal streptavidin coated plate surface and the 104 by DNA fragment released was examined. To the DNA fragment III (500 ng) was admixed an equal volume of 2× binding buffer. The mixture was added to the wells of a plate that had been washed with 1× binding buffer and stirred and adsorbed while being gently vibrated for 15 minutes at room temperature. The supernatant was removed, washed three times with 1× binding buffer, and washed once with 1× PstI buffer. Two types of reaction solution (1× PstI buffer, 1× BSA restriction enzyme 40 units) were prepared: a trehalose (+) system to which D(+)-trehalose was added to a final concentration of 0.6 M, and a trehalose (−) system to which no trehalose was added. Each of the reaction solutions was added to wells that had been washed, and then reacted for three hours at 37° C. Cleavage was conducted with restriction enzyme. The supernatant containing the DNA fragments that had been released was recovered, reacted with proteinase K, treated with phenol chloroform, and precipitated from ethanol. The precipitate of DNA fragments obtained was dissolved in 1× TE (pH 7.5) and analyzed with Bioanalyzer DNA 1000 assay (Agilent Technologies)."}, "[4]": {"tested_on": "λ phage cDNA library", "assay": "Preparation of a λ phage cDNA library, titer from plaques", "conditions": "samples prepared under trehalose (+) 0.6 M vs trehalose (−)", "protocol": "Double-stranded cDNA/RNA hybrid samples that had been immobilized on streptoavidin beads and synthesized under trehalose (+) and trehalose (−) conditions were employed to prepare a λ phage cDNA library. Following synthesis of double-stranded cDNA, the beads were washed with blunting buffer (T4 DNA polymerase buffer). Blunting reaction solution (1× T4 DNA polymerase buffer, 0.6 M trehalose, 0.1 mM dNTP mix, T4 DNA polymerase 5 units) was added and the mixture was incubated for 20 minutes at 12° C. Following the reaction, the beads were washed three times with 0.1× TE, and then washed one more time with 1× ligation buffer. Ligation reaction solution (1× T4 DNA ligation buffer, 0.6 M trehalose, 5′ end BamHI overhang adapter 2 ug, T4 DNA ligase 800 units) was added and the mixture was reacted overnight at 16° C. The beads were washed three times with 0.1× TE and then washed once with 1× XhoI. Restriction enzyme XhoI reaction solution (1× XhoI buffer, 0.6 M trehalose, XhoI 40 units) was added and the mixture was incubated for three hours at 37° C. The beads were recovered with a magnetic stand and the supernatant containing the cDNA that had been released by XhoI cutting was separated. […] A 10 uL quantity and a 100 uL quantity were admixed to the C600/MgSO4 suspensions to infect them with phage. […] The plaques that appeared were counted and the titer was calculated (Scheme 3)."}},
  "data": [
    {"smiles": "OC[C@H]1O[C@H](O[C@H]2O[C@H](CO)[C@@H](O)[C@H](O)[C@H]2O)[C@H](O)[C@@H](O)[C@@H]1O", "note": "[trehalose, D(+)-trehalose]", "values": [
      {"measurement": "double-stranded cDNA synthesis rate, increase over trehalose (−) conditions", "setting": "[1]", "value": 1.25, "unit": "fold"},
      {"measurement": "quantity of the released DNA fragments recovered", "setting": "[2]", "value": "no change"},
      {"measurement": "yield of released DNA fragment", "setting": "[3]", "value": "higher yield"},
      {"measurement": "titer of the phage library", "setting": "[4]", "value": "clearly better results"}
    ]}
  ]
}
